{"source": "patent US20230021483A1", "about": "“[…] […] METHOD AND CLASSIFICATION OF PHARMACEUTICAL COMPONENTS BY USING TRANSCRIPTOMES” (National Institutes of Biomedical Innovation, Health and …, priority 2016, published 2023)", "tested_on": "adjuvant-associated biological themes in LV, SP, LN", "settings": "LV, ID", "excerpt": "A defined sets of genes were selected according to specified criteria (e.g., FC, PA-call, threshold values). Their functional enrichment values were then obtained from TargetMine (Chen, Y. A., Tripathi, L. P. & Mizuguchi, K. PloS one 6, e17844 (2011)) (http://targetmine.mizuguchilab.org/) using the API interface. The following resources were used throughout the analysis via TargetMine Interface (GO, GOSlim, Integrated Pathway, KEGG, Reactome, and the NCI pathway). The Holm-Bonferroni method was used for multiple testing corrections.\nWhole organ transcriptome data for each organ from each mouse were analyzed as follows to obtain biological themes for individual samples from each adjuvant-administered group of three mice. […] A set of Pj genes was first defined, where eij/ei(c)>2.0. Biological themes enriched within Pj were then identified using TargetMine (Chen, Y. A. et al., PloS one 6, e17844 (2011)) (http://targetmine.mizuguchilab.org/). Tj denote the resulting list of biological themes, with associated p-values from Fischer's exact test.\nNext, the biological themes called by all the individual samples in the group were scored as follows. Having obtained three lists (T1, T2 and T3) for a given experimental condition, a consensus list T of themes was created as T={(t1, p1), (t2, p2), . . . }, where ti is a biological theme that appears in all of T1, T2 and T3, and pi is the smallest of the associated p-values. Only the themes with the p-value of <0.05 were included in T.\nTo summarize the biological themes in T further, a list of terms considered to be associated with adjuvant activity in general was separately prepared. AT={at1, at2, . . . }, where ati is a pre-selected adjuvant-associated term (e.g., “stress” or “cytokine”). Finally, an enrichment score S for an adjuvant-associated term ati was defined as: S(ati)=Σ−log(pj), where the name of tj in T includes a term ati as a substring and pj is the associated p-value.\nThis scoring scheme summarizes the relative enrichment of pre-selected adjuvant-associated terms in genes responding to each adjuvant in each organ.", "data": [{"substance": "Poly_IC", "values": [{"measurement": "IFN alpha, GO annotation line 1 of 5", "value": 13.3}, {"measurement": "IFN alpha, GO annotation line 2 of 5", "value": 4.7}, {"measurement": "IFN alpha: cellular response to interferon-alpha", "value": 4.95}, {"measurement": "IFN alpha: positive regulation of interferon-alpha production", "value": 5.95}, {"measurement": "IFN alpha: regulation of interferon-alpha production", "value": 5.3}, {"measurement": "IFN beta: cellular response to interferon-beta", "value": 17.2}, {"measurement": "IFN beta: interferon-beta production", "value": 9.35}, {"measurement": "IFN beta: positive regulation of interferon-beta production", "value": 8.94}, {"measurement": "IFN beta: regulation of interferon-beta production", "value": 7.54}, {"measurement": "IFN beta: response to interferon-beta", "value": 23}, {"measurement": "IFN gamma: cellular response to interferon-gamma", "value": 10.5}, {"measurement": "IFN gamma: interferon-gamma production", "value": 5.43}, {"measurement": "IFN gamma: regulation of interferon-gamma production", "value": 5.32}, {"measurement": "IFN gamma: response to interferon-gamma", "value": 22.3}, {"measurement": "NF-kappa B signaling pathway, GO annotation line 1 of 4", "value": 18}, {"measurement": "NF-kappa B signaling pathway, GO annotation line 2 of 4", "value": 13.5}, {"measurement": "NF-kappa B signaling pathway, GO annotation line 3 of 4", "value": 8.57}, {"measurement": "NF-kappa B signaling pathway, GO annotation line 4 of 4", "value": 9.04}, {"measurement": "TNF signaling pathway", "value": 22.1}, {"measurement": "adaptive immune response, GO annotation line 1 of 5", "value": 11.9}, {"measurement": "adaptive immune response, GO annotation line 2 of 5", "value": 13}, {"measurement": "adaptive immune response, GO annotation line 3 of 5", "value": 7.16}, {"measurement": "adaptive immune response, GO annotation line 4 of 5", "value": 6.84}, {"measurement": "adaptive immune response, GO annotation line 5 of 5", "value": 0}, {"measurement": "apoptosis, GO annotation line 1 of 8", "value": 15.7}, {"measurement": "apoptosis, GO annotation line 2 of 8", "value": 14.8}, {"measurement": "apoptosis, GO annotation line 3 of 8", "value": 12.4}, {"measurement": "apoptosis, GO annotation line 4 of 8", "value": 7.32}, {"measurement": "apoptosis, GO annotation line 5 of 8", "value": 3.59}, {"measurement": "apoptosis, GO annotation line 6 of 8", "value": 7.04}, {"measurement": "apoptosis, GO annotation line 7 of 8", "value": 4.79}, {"measurement": "apoptosis, GO annotation line 8 of 8", "value": 0}, {"measurement": "cell death, GO annotation line 1 of 9", "value": 22.6}, {"measurement": "cell death, GO annotation line 2 of 9", "value": 17.8}, {"measurement": "cell death, GO annotation line 3 of 9", "value": 18.1}, {"measurement": "cell death, GO annotation line 4 of 9", "value": 15.4}, {"measurement": "cell death, GO annotation line 5 of 9", "value": 15.6}, {"measurement": "cell death, GO annotation line 6 of 9", "value": 4.25}, {"measurement": "cell death, GO annotation line 7 of 9", "value": 3.46}, {"measurement": "cell death, GO annotation line 8 of 9", "value": 4.38}, {"measurement": "cell death, GO annotation line 9 of 9", "value": 4.89}, {"measurement": "chemokine, GO annotation line 1 of 4", "value": 6.25}, {"measurement": "chemokine, GO annotation line 2 of 4", "value": 7.84}, {"measurement": "chemokine, GO annotation line 3 of 4", "value": 9.13}, {"measurement": "chemokine, GO annotation line 4 of 4", "value": 9}, {"measurement": "chemotaxis, GO annotation line 1 of 11", "value": 20.7}, {"measurement": "chemotaxis, GO annotation line 2 of 11", "value": 6.87}, {"measurement": "chemotaxis, GO annotation line 3 of 11", "value": 22}, {"measurement": "chemotaxis, GO annotation line 4 of 11", "value": 13.1}, {"measurement": "chemotaxis, GO annotation line 5 of 11", "value": 6.8}, {"measurement": "chemotaxis, GO annotation line 6 of 11", "value": 7.42}, {"measurement": "chemotaxis, GO annotation line 7 of 11", "value": 7.6}, {"measurement": "chemotaxis, GO annotation line 8 of 11", "value": 8.31}, {"measurement": "chemotaxis, GO annotation line 9 of 11", "value": 9.92}, {"measurement": "chemotaxis, GO annotation line 10 of 11", "value": 6.5}, {"measurement": "chemotaxis, GO annotation line 11 of 11", "value": 3.15}, {"measurement": "cytokine, GO annotation line 1 of 17", "value": 66.1}, {"measurement": "cytokine, GO annotation line 2 of 17", "value": 48.5}, {"measurement": "cytokine, GO annotation line 3 of 17", "value": 42.3}, {"measurement": "cytokine, GO annotation line 4 of 17", "value": 12.1}, {"measurement": "cytokine, GO annotation line 5 of 17", "value": 45.6}, {"measurement": "cytokine, GO annotation line 6 of 17", "value": 43.5}, {"measurement": "cytokine, GO annotation line 7 of 17", "value": 20.9}, {"measurement": "cytokine, GO annotation line 8 of 17", "value": 7.3}, {"measurement": "cytokine, GO annotation line 9 of 17", "value": 8.4}, {"measurement": "cytokine, GO annotation line 10 of 17", "value": 34.3}, {"measurement": "cytokine, GO annotation line 11 of 17", "value": 12.6}, {"measurement": "cytokine, GO annotation line 12 of 17", "value": 4.18}, {"measurement": "cytokine, GO annotation line 13 of 17", "value": 15}, {"measurement": "cytokine, GO annotation line 14 of 17", "value": 14.5}, {"measurement": "cytokine, GO annotation line 15 of 17", "value": 3.4}, {"measurement": "cytokine, GO annotation line 16 of 17", "value": 3.66}, {"measurement": "cytokine, GO annotation line 17 of 17", "value": 5.29}, {"measurement": "defense response, GO annotation line 1 of 11", "value": 90.6}, {"measurement": "defense response, GO annotation line 2 of 11", "value": 57.5}, {"measurement": "defense response, GO annotation line 3 of 11", "value": 41.3}, {"measurement": "defense response, GO annotation line 4 of 11", "value": 48.9}, {"measurement": "defense response, GO annotation line 5 of 11", "value": 15.8}, {"measurement": "defense response, GO annotation line 6 of 11", "value": 6.93}, {"measurement": "defense response, GO annotation line 7 of 11", "value": 4.67}, {"measurement": "defense response, GO annotation line 8 of 11", "value": 25.8}, {"measurement": "defense response, GO annotation line 9 of 11", "value": 6.75}, {"measurement": "defense response, GO annotation line 10 of 11", "value": 4.62}, {"measurement": "defense response, GO annotation line 11 of 11", "value": 0}, {"measurement": "immune response, GO annotation line 1 of 8", "value": 79.8}, {"measurement": "immune response, GO annotation line 2 of 8", "value": 35.5}, {"measurement": "immune response, GO annotation line 3 of 8", "value": 39.5}, {"measurement": "immune response, GO annotation line 4 of 8", "value": 23.2}, {"measurement": "immune response, GO annotation line 5 of 8", "value": 20.5}, {"measurement": "immune response, GO annotation line 6 of 8", "value": 23.7}, {"measurement": "immune response, GO annotation line 7 of 8", "value": 3.8}, {"measurement": "immune response, GO annotation line 8 of 8", "value": 4.58}, {"measurement": "inflammatory response, GO annotation line 1 of 5", "value": 32.2}, {"measurement": "inflammatory response, GO annotation line 2 of 5", "value": 14.4}, {"measurement": "inflammatory response, GO annotation line 3 of 5", "value": 5.99}, {"measurement": "inflammatory response, GO annotation line 4 of 5", "value": 0}, {"measurement": "inflammatory response, GO annotation line 5 of 5", "value": 0}, {"measurement": "innate immune response, GO annotation line 1 of 6", "value": 59.5}, {"measurement": "innate immune response, GO annotation line 2 of 6", "value": 40.7}, {"measurement": "innate immune response, GO annotation line 3 of 6", "value": 27.7}, {"measurement": "innate immune response, GO annotation line 4 of 6", "value": 23.3}, {"measurement": "innate immune response, GO annotation line 5 of 6", "value": 18.5}, {"measurement": "innate immune response, GO annotation line 6 of 6", "value": 7.74}, {"measurement": "interleukin-6: interleukin-6 production", "value": 9.62}, {"measurement": "interleukin-6: positive regulation of interleukin-6 production", "value": 5.06}, {"measurement": "interleukin-6: regulation of interleukin-6 production", "value": 10.2}, {"measurement": "interleukin-12: interleukin-12 production", "value": 6.82}, {"measurement": "interleukin-12: positive regulation of interleukin-12 production", "value": 4.28}, {"measurement": "interleukin-12: regulation of interleukin-12 production", "value": 7.39}, {"measurement": "migration, GO annotation line 1 of 10", "value": 22.1}, {"measurement": "migration, GO annotation line 2 of 10", "value": 6.99}, {"measurement": "migration, GO annotation line 3 of 10", "value": 23.4}, {"measurement": "migration, GO annotation line 4 of 10", "value": 18.5}, {"measurement": "migration, GO annotation line 5 of 10", "value": 9}, {"measurement": "migration, GO annotation line 6 of 10", "value": 9.34}, {"measurement": "migration, GO annotation line 7 of 10", "value": 8.14}, {"measurement": "migration, GO annotation line 8 of 10", "value": 7.59}, {"measurement": "migration, GO annotation line 9 of 10", "value": 6.05}, {"measurement": "migration, GO annotation line 10 of 10", "value": 3.46}, {"measurement": "stress, GO annotation line 1 of 3", "value": 58.8}, {"measurement": "stress, GO annotation line 2 of 3", "value": 40.8}, {"measurement": "stress, GO annotation line 3 of 3", "value": 5.39}, {"measurement": "wounding, GO annotation line 1 of 3", "value": 16.7}, {"measurement": "wounding, GO annotation line 2 of 3", "value": 14.8}, {"measurement": "wounding, GO annotation line 3 of 3", "value": 9.8}]}]}
